In patent US11549123B2, “Plant EPSP synthases and methods of use” (PIONEER HI-BRED INTERNATIONAL, INC., priority 2015, dated 2023):

What was measured:
Assay type in all cases: biochemical
[1] = molecular target: T1, Zea mays EPSPS variant Zm-H6 (868-H6) with H54E (H6-H54E) (Zea mays, UniProt O24566, A1R/A3W/A415G/A71Q/D401G/E301S/E390G/G101A/H53E/I207L/K83R/L97C/T278A/T360S/T440Q/V437R); assay: Rapid two-rate method for (kcat/KM)*KI, H6-H54E; details: [E] 0.07 uM, [Gly] 1000 uM
T1 construct: 868-H6 plus H54E; E. coli BL21(DE3), Ni-NTA purified
T1 sequence (O24566 with tags, fused parts or gaps A1R/A3W/H53E/A71Q/K83R/L97C/G101A/I207L/T278A/E301S/T360S/E390G/D401G/A415G/V437R/T440Q): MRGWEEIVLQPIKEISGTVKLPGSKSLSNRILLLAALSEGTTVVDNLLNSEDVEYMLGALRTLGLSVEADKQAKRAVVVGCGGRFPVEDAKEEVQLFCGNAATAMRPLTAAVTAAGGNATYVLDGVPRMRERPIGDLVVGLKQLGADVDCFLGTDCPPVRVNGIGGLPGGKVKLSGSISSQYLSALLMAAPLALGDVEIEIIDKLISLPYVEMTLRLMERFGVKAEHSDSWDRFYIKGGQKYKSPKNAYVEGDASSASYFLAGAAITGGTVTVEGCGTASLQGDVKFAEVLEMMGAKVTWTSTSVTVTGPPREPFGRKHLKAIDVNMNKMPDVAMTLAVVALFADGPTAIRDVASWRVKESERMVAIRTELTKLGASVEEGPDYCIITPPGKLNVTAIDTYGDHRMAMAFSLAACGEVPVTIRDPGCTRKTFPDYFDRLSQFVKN
Source text: There are several practical considerations for accurately estimating (kcat/KM)*KI with the rapid method. […] 2) The inhibitor concentration must be adjusted so as to obtain a degree of inhibition that minimally amplifies the error in the term v0-vi in Equation 3. If inhibition is too little, v0-vi will be small, and the error in the multiplier vi×v0/(v0-vi) will be large. […] 3) Substrate concentration should be set at the approximate KM of the parental variant(s), subject to the sensitivity of the assay. High substrate concentration obscures sensitivity to the inhibitor and reduces stringency for capturing improvements in KM. Depending on the necessity for speed, there exists opportunity for customizing enzyme and inhibitor concentrations. […] The rapid method was repeated for those and obtained data that correlated better with data obtained by substrate saturation analysis. For screening purposes however, that correlation step is not necessary. Conditions can be set so that variants with a pre-determined minimal fitness level are accurately quantified.
In Table 15, parameters above the heavy line for the rapid method were obtained under standard conditions. For variants shown below the heavy line, the rapid analysis was repeated with enzyme or glyphosate concentrations adjusted as needed to generate sufficient signal within the limits for linear initial rates.

[2] = molecular target: Zea mays EPSPS variant 123-C1 (A2R, A4W, K84R, L98C, G102A, I208L, K243E, E391P, D402G), SEQ ID NO:6 (Zea mays, UniProt O24566, A1R/A3W/D401G/E390P/G101A/I207L/K242E/K83R/L97C); assay: EPSPS substrate saturation kinetics, 123-C1
Zea mays EPSPS variant 123-C1 (A2R, A4W, K84R, L98C, G102A, I208L, K243E, E391P, D402G), SEQ ID NO:6, sequence (O24566 entry or part of it A1R/A3W/K83R/L97C/G101A/I207L/K242E/E390P/D401G): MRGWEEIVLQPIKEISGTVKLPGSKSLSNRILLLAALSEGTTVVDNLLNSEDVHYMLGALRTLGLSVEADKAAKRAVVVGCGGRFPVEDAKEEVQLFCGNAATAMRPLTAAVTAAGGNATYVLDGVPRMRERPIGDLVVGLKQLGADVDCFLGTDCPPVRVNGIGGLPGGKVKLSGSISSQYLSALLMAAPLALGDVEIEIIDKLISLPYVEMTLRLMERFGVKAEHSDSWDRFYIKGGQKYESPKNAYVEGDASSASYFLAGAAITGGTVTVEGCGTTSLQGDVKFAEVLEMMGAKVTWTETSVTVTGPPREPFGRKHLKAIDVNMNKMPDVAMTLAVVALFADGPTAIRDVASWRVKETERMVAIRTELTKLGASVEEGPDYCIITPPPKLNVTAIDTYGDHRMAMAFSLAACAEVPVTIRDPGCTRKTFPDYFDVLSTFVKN
Procedure: EPSPS activity was determined by quantifying the phosphate generated from the EPSPS reaction. Release of inorganic phosphate was coupled to reaction with 2-amino-6-mercapto-7-methylpurine ribonucleoside, catalyzed by purine-nucleoside phosphorylase (M R Webb, Proc. Natl. Acad. Sci. 89:4884-4887, 1992). The absorbance change that occurs was monitored at 360 nm, where the extinction is 11,200 M^−1 cm^−1, with a Spectramax plate reader (Molecular Devices). To determine kinetic parameters, the varied substrate was present at seven concentrations (the eighth being the blank, containing no substrate) ranging from 4 to 400 uM and the unvaried substrate present at saturation. […] Reactions were monitored with a Spectramax plate reader. […] KI was then calculated from the following form of the Michaelis-Menten equation for competitive inhibition: KI=KM[I]/(KM app−KM) KM approximates the dissociation constant of the enzyme-substrate complex while kcat is the rate of conversion of substrate to product when the substrate concentration is saturating. kcat/KM is a widely accepted parameter for catalytic efficiency when substrate concentration is low (˜KM). […] The parameter kcat/KM×KI is used to quantify both catalytic efficiency and insensitivity and thus the overall fitness of the enzyme. […]

[3] = molecular target: Zea mays EPSPS variant 202R (Zea mays, UniProt O24566, I201R); assay: EPSPS reaction rate with or without 10 uM glyphosate, 202R; details: pH 7; read-out: Reaction rate with 10 μM glyph, % no glyph; note: 50 µM PEP and S3P
Zea mays EPSPS variant 202R, sequence (O24566 entry or part of it I201R): as the sequence (O24566 entry or part of it A1R/A3W/K83R/L97C/G101A/I207L/K242E/E390P/D401G) above, with R2A, W4A, R84K, C98L, A102G, I202R, L208I, E243K, P391E, G402D counted along it

[4] = molecular target: T2, Zea mays EPSPS, wild-type, SEQ ID NO:1 (Zea mays, UniProt O24566); assay: EPSPS reaction rate with or without 10 uM glyphosate, native maize; details: pH 7; read-out: Reaction rate with 10 μM glyph, % no glyph; note: 50 µM PEP and S3P
T2 construct: expressed in E. coli, purified
T2 sequence (O24566 entry or part of it): as the sequence (O24566 entry or part of it A1R/A3W/K83R/L97C/G101A/I207L/K242E/E390P/D401G) above, with R2A, W4A, R84K, C98L, A102G, L208I, E243K, P391E, G402D counted along it

O=C(O)CNCP(=O)(O)O [glyphosate, N-phosphonomethylglycine]
(kcat/KM)*KI [1]: 4529
Ki [2]: 559 µM
(kcat/KM)*KI ([2]; PEP as substrate, glyphosate as inhibitor): 10100
activity at 10 µM [3]: 7.48%
activity at 10 µM [4]: 9.49%
